The test system of this assay is high fat diet (HFD)-fed dyslipidemic hamsters. In words: Antidyslipidemic activity in high fat diet (HFD)-fed dyslipidemic hamster model. The note with it: for GLY, percent change with respect to HFD-fed hamster group / HDL/TC, percent change with respect to HFD-fed hamster group / TC, percent change with respect to HFD-fed hamster group / TG, percent change with respect to HFD-fed hamster group / LDL, percent change with respect to HFD-fed hamster group: plasma; for antidyslipidemic activity (in words): different doses (5, 10, 25, 50, 100 mg/kg) of body weight. Format: in vivo, golden Syrian hamsters. An excerpt:
Male golden Syrian hamsters weighing 110-120 g were divided into hyperlipidemic and hyperlipidemic plus drug-treated groups. Each group consisted of eight animals. Hyperlipidemia was produced by feeding with a high fat diet (HFD). Hyperlipidemic hamsters had free access to the HFD and water ad lib during the entire period of the experiment. The test samples were given orally at the dose mentioned using water as a drug vehicle from day 4 to day 10 (7 days) in the HFD fed hamsters.
Normal hamsters fed with the HFD and given the drug vehicle (water) only served as control animals. Body weight and diet intake of each animal group was recorded daily to check the effect of the drug on food intake and body weight of the animals. At the end of the experiment, i.e., on the 10th day, the blood of the non-fasted animals was withdrawn in EDTA coated tubes and the tubes were cooled to 4° C. for 15 min. The cold plasma was separated and biological analysis of the plasma was performed on the same day using commercially available enzymatic diagnostic kits for triglycerides (TG), total cholesterol (TC), high density lipoprotein (HDL), glycerol (GLY) and low density lipoprotein (LDL) using a Synchron CX-5 Clinical System, Beckmann Coulter Instrument. The data was analyzed for its significance on Prism Software.

The mark [1] stands for this setting: dose 25 mg/kg body weight, oral, 7 days.
[2] abbreviates: dose 50 mg/kg body weight, oral, 7 days.
Setting [3] is: dose 100 mg/kg body weight, oral, 7 days.

Marks after values point to notes of the source that are not given here.

Regarding `CC(C)c1c(C(=O)Nc2ccccc2)c(-c2ccccc2)c(-c2ccc(F)cc2)n1CC[C@@H](O)C[C@@H](O)CC(=O)O` [Atorvastatin, reference compound], for the setting “dose 10 mg/kg”, the “increase of HDL/TC” value is listed as 35%, the “lowering of Gly” value was 52%, the “lowering of TC” value came to 14% and the “lowering of TG” value is reported as 63%. Also, under “dose 10 mg/kg p.o., 7 days”, the “GLY, percent change with respect to HFD-fed hamster group” value (“GLY, percent change” for short) is given as −52* %; the “HDL/TC, percent change with respect to HFD-fed hamster group” value (“HDL/TC, percent change” below) was “+35%”; the “TC, percent change with respect to HFD-fed hamster group” value was −14%; the “TG, percent change with respect to HFD-fed hamster group” value (from here on “TG, percent change”) is −63*** %.
Take `CC1=CCC[C@@H]2[C@@](C)(CCC3=CC(=O)O[C@@H]3O)[C@H](C)CC[C@@]12C` [Compound 1, 16α-hydroxycleroda-3,13(14)Z-dien-15,16-olide]: the “antidyslipidemic activity (in words)” value was “significant antidyslipidemic activity” (listed as compound having formula (1)); “significantly decreased serum TG, total cholesterol (TC), and glycerol (Gly), accompanied by increase in HDL-C/TC ratio” (listed as pure isolated compound from the hexane extract). Further, the “GLY, percent change” value is on record as −10% (dose 5 mg/kg p.o., 7 days); −5% (dose 10 mg/kg p.o., 7 days); −51*** % (dose 25 mg/kg p.o., 7 days); −48** % (dose 50 mg/kg p.o., 7 days); −43*** % (dose 100 mg/kg p.o., 7 days). Also, the “HDL/TC, percent change” value is “+12%” (dose 5 mg/kg p.o., 7 days); “+12%” (dose 10 mg/kg p.o., 7 days); “+36%” (dose 25 mg/kg p.o., 7 days); “+54%” (dose 50 mg/kg p.o., 7 days); “+46%” (dose 100 mg/kg p.o., 7 days). The “TC, percent change with respect to HFD-fed hamster group” value by setting is: (dose 5 mg/kg p.o., 7 days) −27* %; (dose 10 mg/kg p.o., 7 days) −23* %; (dose 25 mg/kg p.o., 7 days) −46** %; (dose 50 mg/kg p.o., 7 days) −55*** %; (dose 100 mg/kg p.o., 7 days) −54*** %. In addition, the “TG, percent change” value is, setting by setting: (dose 5 mg/kg p.o., 7 days) −19%; (dose 10 mg/kg p.o., 7 days) −26*** %; (dose 25 mg/kg p.o., 7 days) −51*** %; (dose 50 mg/kg p.o., 7 days) −46** %; (dose 100 mg/kg p.o., 7 days) −43** %. The “increase of HDL/TC” value is, setting by setting: under setting [1], 36%; under setting [2], 54%; under setting [3], 46%. Further, the “lowering of Low density lipoproteins (LDL)” value by setting is: under setting [1], 49%; under setting [2], 41%; under setting [3], 65%. Besides, the “lowering of glycerol (Gly)” value is, setting by setting: under setting [1], 51%; under setting [2], 48%; under setting [3], 43%. In addition, the “lowering of total cholesterol (TC)” value runs as follows: under setting [1], 46%; under setting [2], 55%; under setting [3], 54%. The “lowering of serum TG” value is listed as 51% (dose 25 mg/kg body weight, oral, 7 days, listed as compound of formula (1), 25 mg/kg); “up to 51%” (dose 25 mg/kg body weight, oral, 7 days, listed as the compound, 25 mg/kg); 46% under setting [2]; 43% under setting [3]. The “LDL, percent change with respect to HFD-fed hamster group” value reads like this: (dose 25 mg/kg p.o., 7 days) −49* %; (dose 50 mg/kg p.o., 7 days) −41* %; (dose 100 mg/kg p.o., 7 days) −65*** %. For the same compound, the “increase of HDL/TC ratio” value (over the dose range 5 to 100 mg/kg body weight) was “up to 54%”. For the setting “over the dose range 5 to 100 mg/kg, listed as compound of formula (1)”, the “reduction of total cholesterol (TC)” value is “up to 55%”.
`CC[C@H](C)C(=O)O[C@H]1C[C@@H](C)C=C2C=C[C@H](C)[C@H](CC[C@@H]3C[C@@H](O)CC(=O)O3)[C@H]21` [Lovastatin, reference compound]: under setting [1], the “increase of HDL/TC” value turned out to be 12%, the “lowering of glycerol (Gly)” value worked out at 35%, the “lowering of serum TG” value is on record as 29% and the “lowering of total cholesterol (TC)” value came out at 9%. Besides, under “dose 25 mg/kg p.o., 7 days”, the “GLY, percent change” value is −35%; the “HDL/TC, percent change” value is “+12%”; the “TC, percent change with respect to HFD-fed hamster group” value is given as −9%; the “TG, percent change” value is listed as −29%.
Regarding `CC(C)OC(=O)C(C)(C)Oc1ccc(C(=O)c2ccc(Cl)cc2)cc1` [fenofibrate, reference compound], under “dose 108 mg/kg body weight”, the “increase of HDL-C/TC” value came to 10%, the “lowering of Gly” value is 36%, the “lowering of TC” value was found to be 18% and the “lowering of TG” value came to 42%.

These data come from patent US8921417B2, “Method of treating dyslipidemia using naturally occurring diterpene” (Council of Scientific & Industrial Research, priority 2008, dated 2014).
